Data on ten compounds can be found in article PMC8049054, “Systematic Assessment of Fragment Identification for Multitarget Drug Design” (Chemmedchem, 2021).

This assay has as its target T1, leukotriene A4 hydrolase (LTA4H) (Homo sapiens, UniProt P09960).
T1 construct: made in house; host or cells: E. coli BL21 (DE3)
T1 sequence (P09960 1-611): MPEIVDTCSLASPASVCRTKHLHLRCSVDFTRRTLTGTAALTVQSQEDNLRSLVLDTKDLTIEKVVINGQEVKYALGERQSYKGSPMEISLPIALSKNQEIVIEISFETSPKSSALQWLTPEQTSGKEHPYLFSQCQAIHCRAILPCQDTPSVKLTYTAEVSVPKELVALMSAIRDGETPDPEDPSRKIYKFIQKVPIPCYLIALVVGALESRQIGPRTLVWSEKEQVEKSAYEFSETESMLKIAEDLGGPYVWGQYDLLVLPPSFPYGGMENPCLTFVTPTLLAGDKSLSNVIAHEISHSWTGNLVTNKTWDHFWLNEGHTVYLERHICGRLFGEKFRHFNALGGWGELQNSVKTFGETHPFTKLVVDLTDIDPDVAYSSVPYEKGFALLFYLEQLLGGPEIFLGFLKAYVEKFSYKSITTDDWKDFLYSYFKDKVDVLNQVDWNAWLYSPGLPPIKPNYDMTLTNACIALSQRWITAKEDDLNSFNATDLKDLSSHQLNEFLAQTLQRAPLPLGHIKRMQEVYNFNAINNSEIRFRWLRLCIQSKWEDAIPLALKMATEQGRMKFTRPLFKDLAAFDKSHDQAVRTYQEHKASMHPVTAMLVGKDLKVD
The experiment in a line: Differential scanning fluorimetry (DSF) screen on LTA4H. The format is binding. The conditions noted are these: 500 μM fragment, mean of duplicates. An excerpt:
For the primary screen of this fragment library, we employed differential scanning fluorimetry (DSF, also known as thermal shift). DSF is generally applicable to a large panel of protein targets and provides a robust, low‐cost screening technology for fragment‐based approaches. ^[20] All five proteins of our interest are soluble and were recombinantly expressed in Escherichia coli. We performed an initial fragment screen on all five targets by DSF. The use of a uniform screening method for all targets ensured consistent data and provided the opportunity to identify false positive hits which interfered with the screening technology. The conditions of the DSF assay were optimized for the desired screening and validated with reference compounds (Table S1 in the Supporting Information). Compounds causing a positive thermal shift ΔT m≥1.0 °C were considered as active.
DSF measurement of the PDFL (single concentration of 500 μM, duplicates, 96‐well format) on the five proteins retrieved 19 fragment hits on sEH, 28 on LTA4H, 12 on 5‐LOX, 16 on RXRα, and 14 on FXR, respectively. Melting point distributions of the screening library for all five targets are depicted in Figure 2. Amongst the hits, three compounds (Table S2) gave a positive signal on all five proteins likely qualifying them as pan assay interference compounds (PAINS). ^[21] Fragments binding to multiple targets (Scheme 1) were identified for seven out of ten target combinations (Figure 2, Table 1). Among them, fragments 4, 6, 7, and 9 match previously identified privileged scaffolds for fatty acid mimetics. ^[14] […] Active ligands containing N‐phenylbenzamide 6 and the N‐phenylbenzylamine 7 have been described for four of the protein targets. Furthermore, indole, which has been characterized as a privileged heterocycle for fatty acid mimetics, ^[14] is present in fragments 5 and 10. Dual 5‐LOX/RXR ligand 1 was present in 5‐LOX inhibitors, while dual FXR/LTA4H modulator 3 is found among known FXR ligands. Fragments 2 (sEH/5‐LOX) and 8 (LTA4H/RXR) are novel scaffolds not appearing in known ligands of any of the five targets.
Figure S3: SDS page of the purified proteins (proteins RXRα and FXR after TEV cleavage) using a 14% polyacrylamide gel, which was stained with coomassi. Precision Plus Protein™ Unstained Protein Standard s (Bio-Rad Laboratories, Inc. ) was used […]
All experiments were performed as duplicates using MicroAmp fast 96 -well plates. Each plate contained 80 different compound wells and 16 DMSO control wells. First 0.8 µl of a 25 mM Preswick Library Fragment dilution in DMSO or pure DMSO were placed in each of the well (final concentration 500 µM). Then 39.2 µl of the master mi x (containing protein, Triton x -100, SYPRO® Orange Protein Gel Stain and buffer that corresponds to the tested protein) were added.
Table S4: Final concentrations in DSF experiments: […]
The measurements were performed using a iCycler iQ™ Single -Color Real Time PCR device with a heat rate of 1 °C per min, an excitation wavelength of 490 nm and an emission wavelength of 570 nm. The first derivation calculated by MyiQ Op tical Software 1.0 was analyzed using Microsoft Office Excel 2013 by comparing the maxima. A shift of 1 °C (in case of 5 -LOX 0.9°C) or more compared to the DMSO control were assumed as potentially binding of the fragment.
(1 picture or pasted object on this page, not shown here)
On the technique in general: DSF heats the sample and reads unfolding from a dye or from intrinsic fluorescence.

Take `CCCCOc1cc(C(=O)OC)ccc1N` [Compound 3]: the “DSF/ΔT m LTA4H” value came out at 2.5±0.0 °C. Consider `Clc1ccc2c(c1)Nc1ccccc1CC2` [Compound 8], for which the “DSF/ΔT m LTA4H” value came out at 1.5±0.0 °C. Consider `Oc1ccc(-c2ccc(F)cc2F)cc1` [Compound 9], for which the “DSF/ΔT m LTA4H” value came out at 0.7±0.0 °C. With `Fc1ccc(-c2c[nH]c3ccccc23)cc1` [Compound 10], the “DSF/ΔT m LTA4H” value was 2.4±0.0 °C.

With `Oc1ccc(Cc2ccccc2)cc1` [Compound 4], the “DSF/ΔT m LTA4H” value is 1.5±0.0 °C.

In the case of `Cc1cc(=O)n(-c2ccc(C)c(C)c2)[nH]1` [Compound 2], the “DSF/ΔT m LTA4H” value was −0.1±2.1 °C. The figure for `Oc1ccc2cc[nH]c2c1` [Compound 5] is 1.7±0.0 °C; for `c1ccc(N2CCNCC2)nc1` [Compound 1] it is −0.5±0.0 °C; for `Cc1ccccc1C(=O)Nc1ccccc1` [Compound 6] it is 1.4±1.4 °C. In the case of `CCN(Cc1ccccc1)c1ccccc1` [Compound 7] it was 0.5±0.0 °C.
